Data taken from patent publication US20250101023A1, “HETEROARYL DERIVATIVE AND USES THEREOF” (IUCF-HYU (INDUSTRY-UNIVERSITY COOPERATION FOUNDATION …, priority 2022, published 2025).

What was measured:
PLK3 = PLK3 (Homo sapiens (Human), UniProt Q9H4B4); assay: Kinome-wide profiling; assay type: biochemical; details: read-out: % Residual Activity (mean)
PHKg1 = PHKg1 (Homo sapiens (Human), UniProt Q16816); assay: Kinome-wide profiling; assay type: biochemical; details: read-out: % Residual Activity (mean)
CDK2/cyclin A1 = CDK2/cyclin A1 (Homo sapiens (Human), UniProt P24941); assay: Kinome-wide profiling; assay type: biochemical; details: read-out: % Residual Activity (mean)
CTK/MATK = CTK/MATK (Homo sapiens (Human), UniProt P42679); assay: Kinome-wide profiling; assay type: biochemical; details: read-out: % Residual Activity (mean)
DYRK4 = DYRK4 (Homo sapiens (Human), UniProt Q9NR20); assay: Kinome-wide profiling; assay type: biochemical; details: read-out: % Residual Activity (mean)
RSK1 = RSK1 (Homo sapiens (Human), UniProt Q15418); assay: Kinome-wide profiling; assay type: biochemical; details: read-out: % Residual Activity (mean)
ABL1 = ABL1 (Homo sapiens (Human), UniProt P00519); assay: Kinome-wide profiling; assay type: biochemical; details: read-out: % Residual Activity (mean)
PKCeta = PKCeta (Homo sapiens (Human), UniProt P24723); assay: Kinome-wide profiling; assay type: biochemical; details: read-out: % Residual Activity (mean)
CDK2/cyclin O = CDK2/cyclin O (Homo sapiens (Human), UniProt P24941); assay: Kinome-wide profiling; assay type: biochemical; details: read-out: % Residual Activity (mean)
CDK17/cyclin Y (PCTK2) = CDK17/cyclin Y (PCTK2) (Homo sapiens (Human), UniProt Q00537); assay: Kinome-wide profiling; assay type: biochemical; details: read-out: % Residual Activity (mean)
RAF1 = assay: Kinome-wide profiling; assay type: biochemical, human; details: 10 μM
HCK = HCK (Homo sapiens (Human), UniProt P08631); assay: Kinome-wide profiling; assay type: biochemical; details: read-out: % Residual Activity (mean)
CAMKK2 = CAMKK2 (Homo sapiens (Human), UniProt Q96RR4); assay: Kinome-wide profiling; assay type: biochemical; details: read-out: % Residual Activity (mean)
PKN1/PRK1 = PKN1/PRK1 (Homo sapiens (Human), UniProt Q16512); assay: Kinome-wide profiling; assay type: biochemical; details: read-out: % Residual Activity (mean)
JNK2 = JNK2 (Homo sapiens (Human), UniProt P45984); assay: Kinome-wide profiling; assay type: biochemical; details: read-out: % Residual Activity (mean)
TSSK3/STK22C = TSSK3/STK22C (Homo sapiens (Human), UniProt Q96PN8); assay: Kinome-wide profiling; assay type: biochemical; details: read-out: % Residual Activity (mean)
EPHB1 = EPHB1 (Homo sapiens (Human), UniProt P54762); assay: Kinome-wide profiling; assay type: biochemical; details: read-out: % Residual Activity (mean)
MSSK1/STK23 = MSSK1/STK23 (Homo sapiens (Human), UniProt Q9UPE1); assay: Kinome-wide profiling; assay type: biochemical; details: read-out: % Residual Activity (mean)
DDR1 = DDR1 (Homo sapiens (Human), UniProt Q08345); assay: Kinome-wide profiling; assay type: biochemical; details: read-out: % Residual Activity (mean)
RET = RET (Homo sapiens (Human), UniProt P07949); assay: Kinome-wide profiling; assay type: biochemical; details: read-out: % Residual Activity (mean)
CDK2/cyclin E2 = CDK2/cyclin E2 (Homo sapiens (Human), UniProt P24941); assay: Kinome-wide profiling; assay type: biochemical; details: read-out: % Residual Activity (mean)
TYK1/LTK = TYK1/LTK (Homo sapiens (Human), UniProt P29376); assay: Kinome-wide profiling; assay type: biochemical; details: read-out: % Residual Activity (mean)
ABL2/ARG = ABL2/ARG (Homo sapiens (Human), UniProt P42684); assay: Kinome-wide profiling; assay type: biochemical; details: read-out: % Residual Activity (mean)
RSK3 = RSK3 (Homo sapiens (Human), UniProt Q15349); assay: Kinome-wide profiling; assay type: biochemical; details: read-out: % Residual Activity (mean)
HCC1954 xenograft = HCC1954 xenograft model, anticancer efficacy; assay type: in vivo, mouse; details: 20 mg/kg and 40 mg/kg, i.p. twice a week
Experimental: A mouse efficacy experiment was conducted after obtaining approval from the Laboratory Animal Ethics Committee of GenNBio (Review No.: GN-IACUC-Research 22-02-07). SK-Br3 and HCC-1954 cells (1×10^6 cells each) mixed with Matrigel (BD Biosciences) were […] injected into 5-week-old female Balb/c nude mice (Orient Bio, Seongnam, Republic of Korea). After tumors reached a size of about 100 mm^3, the compound, trastuzumab (20 mg/kg), and the like were intraperitoneally injected into mice (n=8 per group)(vehicle: 8% DMSO, 4% Tween-80, 88% PBS). The tumor size was measured twice weekly for about 4 weeks and calculated as follows. Volume (mm^3)=(a×b^2)/2; “a”, maximum diameter; “b”, vertical diameter

LOK/STK10 = LOK/STK10 (Homo sapiens (Human), UniProt O94804); assay: Kinome-wide profiling; assay type: biochemical; details: read-out: % Residual Activity (mean)
CAMK2b = CAMK2b (Homo sapiens (Human), UniProt Q13554); assay: Kinome-wide profiling; assay type: biochemical; details: read-out: % Residual Activity (mean)
CLK1 = CLK1 (Homo sapiens (Human), UniProt P49759); assay: Kinome-wide profiling; assay type: biochemical; details: read-out: % Residual Activity (mean)
SYK = SYK (Homo sapiens (Human), UniProt P43405); assay: Kinome-wide profiling; assay type: biochemical; details: read-out: % Residual Activity (mean)
TNK1 = TNK1 (Homo sapiens (Human), UniProt Q13470); assay: Kinome-wide profiling; assay type: biochemical; details: read-out: % Residual Activity (mean)
ROS/ROS1 = ROS/ROS1 (Homo sapiens (Human), UniProt P08922); assay: Kinome-wide profiling; assay type: biochemical; details: read-out: % Residual Activity (mean)
GSK3a = GSK3a (Homo sapiens (Human), UniProt P49840); assay: Kinome-wide profiling; assay type: biochemical; details: read-out: % Residual Activity (mean)
CAMK1a = CAMK1a (Homo sapiens (Human), UniProt Q14012); assay: Kinome-wide profiling; assay type: biochemical; details: read-out: % Residual Activity (mean)
PKG1b = PKG1b (Homo sapiens (Human), UniProt Q13976); assay: Kinome-wide profiling; assay type: biochemical; details: read-out: % Residual Activity (mean)
SGK2 = SGK2 (Homo sapiens (Human), UniProt Q9HBY8); assay: Kinome-wide profiling; assay type: biochemical; details: read-out: % Residual Activity (mean)

Sequence of EPHB1 (P54762 18-984): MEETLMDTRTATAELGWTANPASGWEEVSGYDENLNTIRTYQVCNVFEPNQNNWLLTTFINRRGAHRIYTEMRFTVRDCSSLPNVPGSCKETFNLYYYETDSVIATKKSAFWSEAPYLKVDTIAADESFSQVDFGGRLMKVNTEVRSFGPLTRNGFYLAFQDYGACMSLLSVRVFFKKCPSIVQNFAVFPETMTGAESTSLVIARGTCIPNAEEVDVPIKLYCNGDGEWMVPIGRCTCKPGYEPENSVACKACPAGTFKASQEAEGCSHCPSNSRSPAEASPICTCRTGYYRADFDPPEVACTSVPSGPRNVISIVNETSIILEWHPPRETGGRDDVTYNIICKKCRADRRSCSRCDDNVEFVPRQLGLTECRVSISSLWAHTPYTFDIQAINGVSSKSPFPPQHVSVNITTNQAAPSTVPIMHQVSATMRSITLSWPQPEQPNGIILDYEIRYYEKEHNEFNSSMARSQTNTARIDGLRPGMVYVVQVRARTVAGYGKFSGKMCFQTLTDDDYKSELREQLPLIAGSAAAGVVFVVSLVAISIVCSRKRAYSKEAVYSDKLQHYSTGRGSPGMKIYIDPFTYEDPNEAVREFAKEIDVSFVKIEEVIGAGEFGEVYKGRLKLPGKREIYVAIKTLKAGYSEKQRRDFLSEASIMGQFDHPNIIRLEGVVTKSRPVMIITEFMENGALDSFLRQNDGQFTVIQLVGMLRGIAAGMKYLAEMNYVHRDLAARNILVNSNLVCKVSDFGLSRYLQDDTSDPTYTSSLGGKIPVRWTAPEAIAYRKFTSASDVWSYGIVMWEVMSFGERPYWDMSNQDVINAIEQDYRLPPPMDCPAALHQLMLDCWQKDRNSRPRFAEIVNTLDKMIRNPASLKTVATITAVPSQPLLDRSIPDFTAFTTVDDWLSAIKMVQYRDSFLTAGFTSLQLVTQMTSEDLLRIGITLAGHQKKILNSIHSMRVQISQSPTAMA
Sequence of TYK1/LTK (P29376 17-864): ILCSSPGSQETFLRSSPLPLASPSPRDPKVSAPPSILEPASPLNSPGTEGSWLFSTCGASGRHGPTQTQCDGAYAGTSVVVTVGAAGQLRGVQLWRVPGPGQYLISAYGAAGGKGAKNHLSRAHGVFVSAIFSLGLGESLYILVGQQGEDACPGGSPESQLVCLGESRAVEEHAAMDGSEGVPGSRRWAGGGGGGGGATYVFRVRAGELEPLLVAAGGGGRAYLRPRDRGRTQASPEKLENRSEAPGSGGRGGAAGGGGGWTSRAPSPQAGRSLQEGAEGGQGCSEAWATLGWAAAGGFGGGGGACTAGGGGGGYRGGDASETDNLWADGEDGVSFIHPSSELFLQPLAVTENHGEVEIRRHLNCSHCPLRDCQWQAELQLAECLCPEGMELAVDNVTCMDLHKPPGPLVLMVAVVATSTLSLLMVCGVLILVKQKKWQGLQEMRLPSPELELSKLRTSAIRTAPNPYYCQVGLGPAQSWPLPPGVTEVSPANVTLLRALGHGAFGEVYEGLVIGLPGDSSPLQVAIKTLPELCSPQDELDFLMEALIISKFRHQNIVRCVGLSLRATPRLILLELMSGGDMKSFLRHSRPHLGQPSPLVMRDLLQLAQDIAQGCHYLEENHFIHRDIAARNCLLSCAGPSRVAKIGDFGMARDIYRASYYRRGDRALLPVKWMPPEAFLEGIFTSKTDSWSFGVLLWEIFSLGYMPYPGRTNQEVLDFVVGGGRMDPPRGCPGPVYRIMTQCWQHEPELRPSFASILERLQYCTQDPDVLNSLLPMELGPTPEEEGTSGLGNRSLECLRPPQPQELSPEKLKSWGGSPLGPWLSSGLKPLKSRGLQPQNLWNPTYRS
Sequence of JNK2 (P45984 whole entry): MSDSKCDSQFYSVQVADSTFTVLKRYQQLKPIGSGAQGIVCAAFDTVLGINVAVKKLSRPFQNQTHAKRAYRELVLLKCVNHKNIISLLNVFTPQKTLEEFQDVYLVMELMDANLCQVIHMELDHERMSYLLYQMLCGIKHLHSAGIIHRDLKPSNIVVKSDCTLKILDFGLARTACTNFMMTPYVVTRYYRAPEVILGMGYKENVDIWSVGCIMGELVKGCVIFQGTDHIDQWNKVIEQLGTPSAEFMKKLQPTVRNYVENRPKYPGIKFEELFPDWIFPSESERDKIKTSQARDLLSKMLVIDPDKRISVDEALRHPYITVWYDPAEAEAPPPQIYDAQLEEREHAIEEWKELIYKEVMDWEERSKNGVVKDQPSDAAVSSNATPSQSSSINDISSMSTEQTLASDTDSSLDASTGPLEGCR
Sequence of DYRK4 (Q9NR20 whole entry): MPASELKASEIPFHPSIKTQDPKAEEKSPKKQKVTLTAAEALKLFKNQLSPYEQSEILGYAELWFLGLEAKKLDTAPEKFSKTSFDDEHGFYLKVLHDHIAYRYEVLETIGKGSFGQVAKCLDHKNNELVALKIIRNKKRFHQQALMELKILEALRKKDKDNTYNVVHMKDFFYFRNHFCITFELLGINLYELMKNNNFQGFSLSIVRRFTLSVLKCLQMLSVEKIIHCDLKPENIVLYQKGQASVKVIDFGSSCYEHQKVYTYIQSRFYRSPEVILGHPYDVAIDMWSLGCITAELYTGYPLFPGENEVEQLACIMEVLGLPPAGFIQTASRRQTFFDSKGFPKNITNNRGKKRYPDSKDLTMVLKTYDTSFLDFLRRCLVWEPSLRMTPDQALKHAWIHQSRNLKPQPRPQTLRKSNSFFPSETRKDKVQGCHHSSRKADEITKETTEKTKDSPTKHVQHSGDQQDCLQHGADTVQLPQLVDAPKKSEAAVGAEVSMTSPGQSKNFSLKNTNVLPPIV
Sequence of RET (P07949 29-1114): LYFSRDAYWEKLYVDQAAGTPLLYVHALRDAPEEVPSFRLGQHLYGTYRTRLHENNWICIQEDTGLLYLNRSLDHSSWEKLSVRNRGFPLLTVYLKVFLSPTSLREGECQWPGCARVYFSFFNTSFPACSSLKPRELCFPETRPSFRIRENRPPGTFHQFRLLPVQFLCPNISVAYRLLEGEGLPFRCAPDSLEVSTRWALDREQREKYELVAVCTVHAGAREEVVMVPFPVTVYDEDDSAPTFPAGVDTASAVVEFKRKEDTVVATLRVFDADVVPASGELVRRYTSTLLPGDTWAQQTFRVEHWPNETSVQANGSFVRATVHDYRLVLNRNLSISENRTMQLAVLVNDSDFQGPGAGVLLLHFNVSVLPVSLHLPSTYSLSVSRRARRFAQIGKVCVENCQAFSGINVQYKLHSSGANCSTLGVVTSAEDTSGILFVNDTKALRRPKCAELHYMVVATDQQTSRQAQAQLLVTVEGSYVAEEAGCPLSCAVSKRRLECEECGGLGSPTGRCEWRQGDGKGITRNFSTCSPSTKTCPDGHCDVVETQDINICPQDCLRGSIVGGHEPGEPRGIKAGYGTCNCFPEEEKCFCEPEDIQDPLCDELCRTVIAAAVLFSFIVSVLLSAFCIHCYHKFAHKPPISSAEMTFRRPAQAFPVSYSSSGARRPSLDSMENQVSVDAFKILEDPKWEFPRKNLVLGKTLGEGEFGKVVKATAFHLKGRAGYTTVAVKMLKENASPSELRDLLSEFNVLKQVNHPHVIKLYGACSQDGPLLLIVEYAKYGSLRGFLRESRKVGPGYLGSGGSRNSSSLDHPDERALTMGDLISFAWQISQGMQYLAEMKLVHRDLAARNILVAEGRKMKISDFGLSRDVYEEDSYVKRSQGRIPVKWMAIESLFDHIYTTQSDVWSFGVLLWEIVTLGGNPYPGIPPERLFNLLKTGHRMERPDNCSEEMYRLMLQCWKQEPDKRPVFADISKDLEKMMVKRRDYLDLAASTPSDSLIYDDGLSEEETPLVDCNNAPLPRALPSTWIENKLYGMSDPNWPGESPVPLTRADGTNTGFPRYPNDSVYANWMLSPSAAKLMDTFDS
Sequence of PKN1/PRK1 (Q16512 whole entry): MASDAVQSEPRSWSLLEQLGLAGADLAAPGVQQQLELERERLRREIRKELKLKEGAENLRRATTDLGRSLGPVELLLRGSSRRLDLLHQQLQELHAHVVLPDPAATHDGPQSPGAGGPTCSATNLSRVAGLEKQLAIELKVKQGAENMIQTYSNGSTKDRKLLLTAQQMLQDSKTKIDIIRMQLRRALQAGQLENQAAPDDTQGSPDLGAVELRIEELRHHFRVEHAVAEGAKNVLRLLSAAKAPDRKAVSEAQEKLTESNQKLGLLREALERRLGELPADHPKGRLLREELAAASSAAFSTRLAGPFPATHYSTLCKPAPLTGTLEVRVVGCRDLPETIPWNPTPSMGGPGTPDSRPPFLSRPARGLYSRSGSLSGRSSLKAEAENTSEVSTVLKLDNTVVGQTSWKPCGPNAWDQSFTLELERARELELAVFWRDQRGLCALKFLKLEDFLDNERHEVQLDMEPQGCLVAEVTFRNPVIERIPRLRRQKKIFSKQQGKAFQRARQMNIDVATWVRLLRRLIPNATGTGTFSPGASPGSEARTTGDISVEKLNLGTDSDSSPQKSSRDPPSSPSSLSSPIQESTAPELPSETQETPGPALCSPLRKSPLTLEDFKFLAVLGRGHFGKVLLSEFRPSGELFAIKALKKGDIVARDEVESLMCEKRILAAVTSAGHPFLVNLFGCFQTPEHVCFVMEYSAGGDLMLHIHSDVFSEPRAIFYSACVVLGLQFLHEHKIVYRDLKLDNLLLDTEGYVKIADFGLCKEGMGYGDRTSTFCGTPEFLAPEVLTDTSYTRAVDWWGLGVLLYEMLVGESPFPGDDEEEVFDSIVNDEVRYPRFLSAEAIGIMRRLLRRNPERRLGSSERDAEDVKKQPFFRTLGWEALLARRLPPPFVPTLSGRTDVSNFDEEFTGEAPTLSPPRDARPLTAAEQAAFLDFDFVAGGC
Sequence of TSSK3/STK22C (Q96PN8 whole entry): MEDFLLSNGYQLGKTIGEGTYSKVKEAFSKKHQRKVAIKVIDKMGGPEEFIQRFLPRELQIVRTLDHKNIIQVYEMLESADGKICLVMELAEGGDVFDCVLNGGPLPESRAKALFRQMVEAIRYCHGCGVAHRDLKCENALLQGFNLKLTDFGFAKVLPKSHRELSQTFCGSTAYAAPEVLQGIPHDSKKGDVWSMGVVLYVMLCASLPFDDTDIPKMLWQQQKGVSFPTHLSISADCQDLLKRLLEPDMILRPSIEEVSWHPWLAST

CCn1cnc2c(NCc3ccc(-c4ccccn4)nc3)nc(-c3ccc(N)nc3)nc21 [Example 53, N-([2,2′-bipyridin]-5-ylmethyl)-2-(6-aminopyridin-3-yl)-9-ethyl-9H-purin-6-amine]
remaining activity at 10 µM (PLK3): 94.4% | remaining activity at 10 µM (PHKg1): 16.5% | remaining activity at 10 µM (CDK2/cyclin A1): 0.16% | remaining activity at 10 µM (CTK/MATK): 87.6% | remaining activity at 10 µM (DYRK4): 89.3% | remaining activity at 10 µM (RSK1): 59.1% | remaining activity at 10 µM (ABL1): 61.2% | remaining activity at 10 µM (PKCeta): 87.9% | remaining activity at 10 µM (CDK2/cyclin O): 0.54% | remaining activity at 10 µM (CDK17/cyclin Y (PCTK2)): 7.25% | % Residual Activity (mean) (RAF1): 68.57% | remaining activity at 10 µM (HCK): 46.5% | remaining activity at 10 µM (CAMKK2): 10.6% | remaining activity at 10 µM (PKN1/PRK1): 85.4% | remaining activity at 10 µM (JNK2): 61.7% | remaining activity at 10 µM (TSSK3/STK22C): 91.5% | remaining activity at 10 µM (EPHB1): 13.6% | remaining activity at 10 µM (MSSK1/STK23): 82.8% | remaining activity at 10 µM (DDR1): 50.2% | remaining activity at 10 µM (RET): 79.5% | remaining activity at 10 µM (CDK2/cyclin E2): 9.78% | remaining activity at 10 µM (TYK1/LTK): 73.6% | remaining activity at 10 µM (ABL2/ARG): 56.1% | remaining activity at 10 µM (RSK3): 58% | anticancer efficacy (HCC1954 xenograft): dose-dependent anticancer efficacy | remaining activity at 10 µM (LOK/STK10): 41.4% | remaining activity at 10 µM (CAMK2b): 65.2% | remaining activity at 10 µM (CLK1): 13.7% | remaining activity at 10 µM (SYK): 48.4% | remaining activity at 10 µM (TNK1): 91.3% | remaining activity at 10 µM (ROS/ROS1): 27.8% | remaining activity at 10 µM (GSK3a): 10.6% | remaining activity at 10 µM (CAMK1a): 34% | remaining activity at 10 µM (PKG1b): 97.6% | remaining activity at 10 µM (SGK2): 84.7%
